From patent US20100104614A1, “PROVIDONE COMPOSITIONS FOR WOUND HEALING” (priority 2008, published 2010) come the findings set out here.

The nature of this assay: Treatment of non-healing dog bite wounds in a patient (Example 1). Particulars: course of antibiotics (a cephalosporin and flagyl) and daily dressing changes; after five weeks. The assay is classed as in vivo, human. How it is done: A patient presented with six non-healing dog bite wounds, one on their forearm, and the rest on their lower extremeties. Their wounds were treated with a course of antibiotics (a cephalosporin and flagyl) and daily dressing changes. […] Further treatment with hyperbaric oxygen was being contemplated.
Approximately one tablespoon of povidone powder was sprinkled over the patient's wounds. Within four days, wounds had completely healed.

Turning to `Cc1ncc([N+](=O)[O-])n1CCO` [flagyl], the “wound healing outcome of prior treatment” value is recorded as “remained unhealed”.
